The values that follow come from patent publication US10821115B2, “Compounds that inhibit Mcl-1 protein” (priority 2017, dated 2020).

Read-outs that look alike come from different tables or passages of the source.

The IC50 is the point on the concentration scale where inhibition reaches its midpoint.

In assay [1] the target is recombinant human Mcl-1 (residues 171-327) / Bim interaction (Homo sapiens (Human), UniProt Q07820). As to the kind of experiment: biochemical. In kind it is binding. The note with it: read-out: Mcl-1 HTRF IC50. For orientation: TR-FRET usually uses a lanthanide donor and a delayed reading to cut background.
In assay [2] the test system is human multiple myeloma cell line, OPM-2. As to the kind of experiment: Cell viability assay (OPM-2 10 FBS), CellTiter-Glo. In kind it is cell-based. The gist of the method:
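Cells were seeded at 3000 cells/well in RPMI 1640 with 10% FBS and exposed to serially diluted compounds for 16 h at 37 °C, 5% CO2.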

The mark [3] stands for this setting: 0.1 nM Mcl-1(171-327), 0.05 nM biotin-Bim (51-76).
[4] abbreviates: Homo sapiens, OPM-2, 16 h, read-out: OPM-2 10% FBS IC50 IP, OPM-2 cells, 10% FBS, 16 h incubation.
[5] abbreviates: TR-FRET, Mcl-1(171-327) / biotin-Bim (51-76).
Where [6] appears, read: Homo sapiens, OPM-2, 16 h, read-out: OPM-2 10% FBS IC50 IP, OPM-2 cells, 10% FBS, 16 h, CellTiter-Glo.
Where [7] appears, read: read-out: OPM-2 10% FBS IC50 IP, OPM-2 cells, 10% FBS, 16 h incubation.

recombinant human Mcl-1 (residues 171-327) / Bim interaction, sequence (Q07820 171-327): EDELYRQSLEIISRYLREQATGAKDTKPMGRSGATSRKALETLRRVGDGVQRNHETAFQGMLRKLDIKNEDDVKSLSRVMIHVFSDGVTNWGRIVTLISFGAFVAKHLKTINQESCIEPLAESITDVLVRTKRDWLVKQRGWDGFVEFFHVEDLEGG

With `CO[C@@]1(CN2CCN(CC(F)F)CC2)/C=C/C[C@H](C)[C@@H](C)S(=O)(=O)NC(=O)c2ccc3c(c2)N(C[C@@H]2CC[C@H]21)C[C@@]1(CCCc2cc(Cl)ccc21)CO3` [Example 306, (1S,3′R,6′R,7′S,8′E,11′S,12′R)-6-chloro-7′-((4-(2,2-difluoroethyl)-1-piperazinyl)methyl)-7′-methoxy-11′,12′-dimethyl-3,4-dihydro-2H,15′H-spiro[naphthalene-1,22′-[20]oxa[13]thia[1,14]diazatetracyclo [14.7.2.0~3,6~.0~19,24~]pentacosa[8,16,18,24]tetraen]-15′-one 13′,13′-dioxide], the IC50 came out at 0.282 nM in assay [1] (setting [3]) and 246 nM in assay [2] (setting [4]).

For the compound `CO[C@]1(CN2CCN3C(=O)COC[C@@H]3C2)/C=C/C[C@H](C)[C@@H](C)S(=O)(=O)NC(=O)c2ccc3c(c2)N(C[C@@H]2CC[C@H]21)C[C@@]1(CCCc2cc(Cl)ccc21)CO3` [Example 140, (1S,3′R,6′R,7′R,8′E,11′S,12′R)-6-chloro-7′-methoxy-11′,12′-dimethyl-7′-(((9aS)-4-oxohexahydropyrazino[2,1-c][1,4]oxazin-8(1H)-yl)methyl)-3,4-dihydro-2H,15′H-spiro[naphthalene-1,22′-[20]oxa[13]thia[1,14]diazatetracyclo [14.7.2.0~3,6~.0~19,24~]pentacosa[8,16,18,24]tetraen]-15′-one 13′,13′-dioxide], the half-inhibitory concentration (IC50) in assay [1] (setting [3]) was found to be 0.098 nM; in assay [2] (setting [4]), 125 nM.

Regarding `COCCN1CCN(C[C@]2(OC)/C=C/C[C@H](C)[C@@H](C)S(=O)(=O)NC(=O)c3ccc4c(c3)N(C[C@@H]3CC[C@H]32)C[C@@]2(CCCc3cc(Cl)ccc32)CO4)CC1=O` [Example 55, (1S,3′R,6′R,7′S,8′E,11′S,12′R)-6-chloro-7′-methoxy-7′-((4-(2-methoxyethyl)-3-oxo-1-piperazinyl)methyl)-11′,12′-dimethyl-3,4-dihydro-2H,15′H-spiro[naphthalene-1,22′-[20]oxa[13]thia[1,14]diazatetracyclo [14.7.2.0~3,6~.0~19,24~]pentacosa[8,16,18,24]tetraen]-15′-one 13′,13′-dioxide], the IC50 turned out to be 0.162 nM in assay [1] (setting [3]) and 80 nM in assay [2] (setting [4]).

As to `CO[C@@]1(CC(=O)N2CCN(C)C[C@H]2C)/C=C/C[C@H](C)[C@@H](C)S(=O)(=O)NC(=O)c2ccc3c(c2)N(C[C@@H]2CC[C@H]21)C[C@@]1(CCCc2cc(Cl)ccc21)CO3` (single isomer, unassigned) [Example 100480], the IC50 worked out at 0.176 nM in assay [1] (setting [5]) and 221 nM in assay [2] (read-out: OPM-2 10% FBS IC50 IP, OPM-2 cells, 10% FBS, 16 h, CellTiter-Glo).

On to `COCCO[C@@]1(C)/C=C/C[C@H](C)[C@@H](C)S(=O)(=O)NC(=O)c2ccc3c(c2)N(C[C@@H]2CC[C@H]21)C[C@@]1(CCCc2cc(Cl)ccc21)CO3` [Example 100466, (1S,3′R,6′R,7′S,8′E,11′S,12′R)-6-chloro-7′-(2-methoxyethoxy)-7′,11′,12′-trimethyl-3,4-dihydro-2H,15′H-spiro[naphthalene-1,22′-[20]oxa[13]thia[1,14]diazatetracyclo [14.2.0~3,6~.0~19,24~]pentacosa[8,16,18,24]tetraen]-15′-one 13′,13′-dioxide], for which the results for the IC50 in assay [1] (setting [5]) and in assay [2] (setting [6]) were 0.043 nM and 1440 nM, respectively.

Regarding `CO[C@@]1(CN2CCN3C(=O)[C@H](C)OC[C@@H]3C2)/C=C/C[C@H](C)[C@@H](C)S(=O)(=O)NC(=O)c2ccc3c(c2)N(C[C@@H]2CC[C@H]21)C[C@@]1(CCCc2cc(Cl)ccc21)CO3` [Example 143, (1S,3′R,6′R,7′S,8′E,11′S,12′R)-6-chloro-7′-methoxy-11′,12′-dimethyl-7′-(((3S,9aS)-3-methyl-4-oxohexahydropyrazino[2,1-c][1,4]oxazin-8(1H)-yl)methyl)-3,4-dihydro-2H,15′H-spiro[naphthalene-1,22′-[20]oxa[13]thia[1,14]diazatetracyclo [14.7.2.0~3,6~.0~19,24~]pentacosa[8,16,18,24]tetraen]-15′-one 13′,13′-dioxide], the figures for the concentration for half-maximal inhibition (IC50) in assay [1] (setting [3]) and in assay [2] (setting [4]) were 0.432 nM and 219 nM, respectively.

For “(1S,3′R,6′R,7′R,8′E,11′S,12′R)-6-chloro-12′-(2-(dimethylamino)ethyl)-7′-methoxy-11′-methyl-7′-((9aR)-octahydro-2H-pyrido[1,2-a]pyrazin-2-ylmethyl)-3,4-dihydro-2H,15′H-spiro[naphthalene-1,22′-[20]oxa[13]thia[1,14]diazatetracyclo[14.7.2.0-3,6˜.0˜19,24˜]pentacosa[8,16,18,24]tetraen]-15′-one 13′,13′-dioxide [Example 367]”, the IC50 amounted to 0.201 nM in assay [1] (setting [3]) and 273 nM in assay [2] (setting [7]).

In the case of `C[C@@H]1[C@@H](C)C/C=C/[C@](O)(c2cnccn2)[C@@H]2CC[C@H]2CN2C[C@@]3(CCCc4cc(Cl)ccc43)COc3ccc(cc32)C(=O)NS1(=O)=O` [Example 100383, (1S,3′R,6′R,7′R,8′E,11′S,12′R)-6-chloro-7′-hydroxy-11′,12′-dimethyl-7′-(2-pyrazinyl)-3,4-dihydro-2H,15′H-spiro[naphthalene-1,22′-[20]oxa[13]thia[1,14]diazatetracyclo [14.7.2.0~3,6~.0~19,24~]pentacosa[8,16,18,24]tetraen]-15′-one 13′,13′-dioxide], the figures for the IC50 in assay [1] (setting [5]) and in assay [2] (setting [6]) were 0.264 nM and 3430 nM, respectively.

For `CO[C@]1(CN2CCN(C3COCCOC3)CC2)/C=C/C[C@H](C)[C@@H](C)S(=O)(=O)NC(=O)c2ccc3c(c2)N(C[C@@H]2CC[C@H]21)C[C@@]1(CCCc2cc(Cl)ccc21)CO3` [Example 342, (1S,3′R,6′R,7′R,8′E,11′S,12′R)-6-chloro-7′-((4-(1,4-piperazinyl)methyl)-7′-dioxepan-6-yl)-1-methoxy-11′,12′-dimethyl-3,4-dihydro-2H,15′H-spiro[naphthalene-1,22′-[20]oxa[13]thia[1,14]diazatetracyclo [14.7.2.0~3,6~.0~19,24~]pentacosa[8,16,18,24]tetraen]-15′-one 13′,13′-dioxide], the IC50 in assay [1] (setting [3]) was 0.089 nM; in assay [2] (setting [4]), 104 nM.

Turning to `CO[C@@]1(CN2CCc3ncsc3C2)/C=C/C[C@H](C)[C@@H](C)S(=O)(=O)NC(=O)c2ccc3c(c2)N(C[C@@H]2CC[C@H]21)C[C@@]1(CCCc2cc(Cl)ccc21)CO3` [Example 209], the values for the half-inhibitory concentration (IC50) in assay [1] (setting [3]) and in assay [2] (setting [4]) were 0.552 nM and 437 nM, respectively.

As to `CO[C@@]1(CN2CCN3C[C@H](C)OC[C@@H]3C2)/C=C/C[C@H](C)[C@@H](C)S(=O)(=O)NC(=O)c2ccc3c(c2)N(C[C@@H]2CC[C@H]21)C[C@@]1(CCCc2cc(Cl)ccc21)CO3` [Example 145, (1S,3′R,6′R,7′S,8′E,11′S,12′R)-6-chloro-7′-methoxy-11′,12′-dimethyl-7′-(((3S,9aS)-3-methylhexahydropyrazino[2,1-c][1,4]oxazin-8(1H)-yl)methyl)-3,4-dihydro-2H,15′H-spiro[naphthalene-1,22′-[20]oxa[13]thia[1,14]diazatetracyclo [14.7.2.0~3,6~.0~19,24~]pentacosa[8,16,18,24]tetraen]-15′-one 13′,13′-dioxide], the IC50 was found to be 0.124 nM in assay [1] (setting [3]) and 113 nM in assay [2] (setting [4]).

“(1S,3′R,6′R,7′S,8′E,11′S,12′R)-6-chloro-7′-((9aS)-hexahydropyrazino[2,1-c][1,4]oxazin-8(1H)-ylmethyl)-7′-methoxy-11′-methyl-3,4-dihydro-2H,16′H-spiro[naphthalene-1,23′-[21]oxa[27]thia[1,15]diazapentacyclo[15.7.2.1-12,15˜.0˜3,6˜.0˜20,25˜]heptacos a[8,17,19,25]tetraen]-16′-one 27′,27′-dioxide [Example 364]”: the IC50 in assay [1] (setting [3]) is 192 nM; in assay [2] (setting [7]), > 33300 nM.

For the compound `CO[C@@]1(CN2CCN(c3cncnc3)CC2)/C=C/C[C@H](C)[C@@H](C)S(=O)(=O)NC(=O)c2ccc3c(c2)N(C[C@@H]2CC[C@H]21)C[C@@]1(CCCc2cc(Cl)ccc21)CO3` [Example 305, (1S,3′R,6′R,7′S,8′E,11′S,12′R)-6-chloro-7′-methoxy-11′,12′-dimethyl-7′-((4-(5-pyrimidinyl)-1-piperazinyl)methyl)-3,4-dihydro-2H,15′H-spiro[naphthalene-1,22′-[20]oxa[13]thia[1,14]diazatetracyclo [14.7.2.0~3,6~.0~19,24~]pentacosa[8,16,18,24]tetraen]-15′-one 13′,13′-dioxide], the IC50 in assay [1] (setting [3]) was determined as 0.33 nM; in assay [2] (setting [4]), 327 nM.

Turning to `CO[C@@]1(CN2CCN(C3(C#N)COC3)CC2)/C=C/C[C@H](C)[C@@H](C)S(=O)(=O)NC(=O)c2ccc3c(c2)N(C[C@@H]2CC[C@H]21)C[C@@]1(CCCc2cc(Cl)ccc21)CO3` [Example 272, 3-(4-(((1S,3′R,6′R,7′S,8′E,11′S,12′R )-6-chloro-7′-methoxy-11′,12′-dimethyl-13′,13′-dioxido-15′-oxo-3,4-dihydro-2H-spiro[naphthalene-1,22′-[20]oxa[13]thia[1,14]diazatetracyclo [14.7.2.0~3,6~.0~19,24~]pentacosa[8,16,18,24]tetraen]-7′-yl)methyl)-1-piperazinyl)-3-oxetanecarbonitrile], the IC50 in assay [1] (setting [3]) amounted to 0.144 nM; in assay [2] (setting [4]), 137 nM.

For the compound `CO[C@@]1(CN2CCN3CCCC[C@@H]3C2)/C=C/[C@H](C)[C@H](C)CS(=O)(=O)NC(=O)c2ccc3c(c2)N(C[C@@H]2CC[C@H]21)C[C@@]1(CCCc2cc(Cl)ccc21)CO3` [Example 163, (1S,3′R,6′R,7′S,8′E,10′S,11′S)-6-chloro-7′-methoxy-10′,11′-dimethyl-7′-((9aR)-octahydro-2H-pyrido[1,2-a]pyrazin-2-ylmethyl)-3,4-dihydro-2H,15′H-spiro[naphthalene-1,22′-[20]oxa[13]thia[1,14]diazatetracyclo [14.7.2.0~3,6~.0~19,24~]pentacosa[8,16,18,24]tetraen]-15′-one 13′,13′-dioxide], the IC50 in assay [1] (setting [3]) worked out at 0.179 nM; in assay [2] (setting [4]) it was 130 nM.
